{
  "source": "patent US11001591B2",
  "about": "“TRAF 6 inhibitors” (HELMHOLTZ ZENTRUM MUENCHEN—DEUTSCHES FORSCHUNGSZENTRUM FÜR …, priority 2016, dated 2021)",
  "key": {"RNF4": {"target": "T1, RNF4 (Homo sapiens, UniProt P78317)", "T1 construct": "purchased Boston Biochem one of K-102, K-260, K-200B, K-220, K-240, K-270", "experiment": "In vitro ubiquitination assay, RNF4", "format": "biochemical", "protocol": "(§1) For analysis of clAP1, MDM2, TRIM63, RNF4, ITCH and E6AP mediated poly-ubiquitination, the respective ubiquitin ligase kit from Boston Biochem (K-102, K-260, K-200B, K-220, K-240 and K-270) was used. Here, reaction buffer, E1, E2 and E3 enzyme (and p53 substrate in case of MDM2) were mixed and pre-incubated with compound or DMSO for 5 minutes at room temperature before adding Mg^2+-ATP and mono-ubiquitin for reaction start. Ubiquitination was visualized by Western Blot analyses."}, "[1]": {"tested_on": "U2932 (ABC DLBCL-MYD88 wt)", "experiment": "Cell viability in DLBCL, U2932", "format": "cell-based", "conditions": "30 μM added at day 0, 4 and 8; 9 days", "protocol": "To determine the effects of C25-140 on MYD88-dependent ABC-DLBCL, we chose the HBL1 (ABC-DLBCL-MYD88 L265P), U2932 (ABC DLBCL-MYD88 wt) and BJAB (GCB DLBCL) cell lines. 1×10^6 cells of each cell line was seeded in 5 ml and treated with 30 μM compound C25-140 (compound 3) or DMSO. The entire experiment was carried out for 9 days. Every day 500 μl were taken and viable cell number was acquired using the ViCEII cell counter (Beckmann Coulter). At days 4 and 8 of the experiment the volume was again adjusted to 5 ml and samples were supplemented with 30 μM compound C25-140 or DMSO. This process was necessary to ensure linear proliferation of DMSO treated cells. All curves of C25-140 treated samples were referred to the corresponding DMSO treated controls."}, "[2]": {"tested_on": "TRAF6 auto-ubiquitination", "experiment": "Immunoprecipitation of TRAF6, endogenous ubiquitination in MEF cells", "format": "cell-based, mouse", "protocol": "2.5×10^6 MEF cells were seeded, treated with compound for 6 hours and stimulated with IL-1β (3.5 ng/mL) for 10 minutes. Cells were lysed in Co-IP lysis buffer containing 1% SDS to eliminate all cellular interactions. After cell lysis and removal of input samples, the samples were diluted to 0.1% SDS and incubated with 5 μL TRAF6 antibody EP591Y (Abcam) and immunoprecipitated with Protein-G-Sepharose beads. After washing of the beads in Co-IP wash buffer, TRAF6 protein was eluted and levels of TRAF6 ubiquitination were detected by Western Blot analysis."}, "MURF/TRIM63": {"target": "T2, MURF/TRIM63 (Homo sapiens, UniProt Q969Q1)", "T2 construct": "purchased Boston Biochem one of K-102, K-260, K-200B, K-220, K-240, K-270", "T2 sequence (Q969Q1 whole entry)": "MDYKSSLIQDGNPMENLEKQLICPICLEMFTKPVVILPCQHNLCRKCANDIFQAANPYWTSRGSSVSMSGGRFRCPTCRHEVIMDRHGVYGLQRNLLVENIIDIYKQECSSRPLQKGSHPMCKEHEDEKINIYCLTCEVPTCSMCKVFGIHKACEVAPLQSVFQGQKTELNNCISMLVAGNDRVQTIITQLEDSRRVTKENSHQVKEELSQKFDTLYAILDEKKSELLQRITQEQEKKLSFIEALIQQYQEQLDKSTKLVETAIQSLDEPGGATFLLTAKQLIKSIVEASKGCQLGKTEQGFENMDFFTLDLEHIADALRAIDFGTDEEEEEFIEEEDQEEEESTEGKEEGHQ", "experiment": "In vitro ubiquitination assay, MURF/TRIM63", "format": "biochemical", "conditions": "K48 chain formation", "protocol": "as §1"}, "TRAF6-Ubc13 binding": {"target": "T3, TRAF6-Ubc13 binding (Homo sapiens, UniProt Q9Y4K3)", "T3 construct": "RING-Zincfinger1 (RZ1) domain (residues 50-159) of TRAF6 wildtype; expressed in transfected cells; host or cells: HEK 293T", "T3 sequence (Q9Y4K3 50-159)": "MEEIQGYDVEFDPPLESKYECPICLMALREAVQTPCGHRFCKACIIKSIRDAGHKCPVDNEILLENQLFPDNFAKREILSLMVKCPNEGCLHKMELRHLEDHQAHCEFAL", "experiment": "Co-immunoprecipitation of HA-TRAF6 and endogenous Ubc13 in HEK 293T cells", "format": "cell-based", "conditions": "listed as C25-140", "protocol": "To study the interaction of TRAF6 and Ubc13 in cells, 1×10^6 293T cells were seeded and after 18 hours cells were transfected with lpg pEF-HA empty or pEF-HA-TRAF6 RZ1 plasmid using the X-tremeGENE HP DNA transfection reagent (Roche). 6 hours upon transfection, cells were treated with compound or DMSO. After 42 hours further incubation, cells were harvested in Co-IP lysis buffer and HA-TRAF6 was immunoprecipitated with anti-HA affinity matrix (Roche). Binding of Ubc13 to TRAF6 was examined in Western Blot analysis."}},
  "note": "“Also recorded” adds a separate entry of the source.",
  "data": [
    {"smiles": "Cc1nn(-c2ccc3nnc(C)n3n2)c(C)c1CCC(=O)N1CCC(Cc2ccccc2)CC1", "note": "[Compound 3, 1-(4-benzylpiperidin-1-yl)-3-(3,5-dimethyl-1-(3-methyl-[1,2,4]triazolo[4,3-b]pyridazin-6-yl)-1H-pyrazol-4-yl)propan-1-one]", "values": [
      {"measurement": "RNF4 auto-ubiquitination", "setting": "RNF4", "result": "not affected"},
      {"measurement": "viability (cell count)", "setting": "[1]", "result": "only slightly affected"},
      {"measurement": "IL-1β-induced TRAF6 auto-ubiquitination", "setting": "[2]", "result": "reduced"},
      {"measurement": "S5A ubiquitination by MURF/TRIM63", "setting": "MURF/TRIM63", "result": "not affected"},
      {"measurement": "interaction of endogenous Ubc13 with ectopically expressed HA-TRAF6", "setting": "TRAF6-Ubc13 binding", "result": "reduced interaction; also recorded: most active analogs"}
    ]}
  ]
}
